Experimental data: PubChem BioAssay (NCI)
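Exposure lasted 48 hours, with cells grown in 96-well plates and compounds tested at five concentrations. GI50 is the concentration that inhibits growth by half. TGI: total growth inhibition.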

How the values were obtained:
Assay in all cases: growth of human tumour cells (NCI), 48 h
A549 NSCLC = system: A549 NSCLC
MDA-MB-435 = system: MDA-MB-435
A498 renal = system: A498 renal
786-0 renal = system: 786-0 renal
NCI-H460 lung = system: NCI-H460 lung
ACHN renal = system: ACHN renal
SN12C renal = system: SN12C renal
HCC-2998 colon = system: HCC-2998 colon
OVCAR-5 ovarian = system: OVCAR-5 ovarian
OVCAR-4 ovarian = system: OVCAR-4 ovarian
SK-OV-3 ovarian = system: SK-OV-3 ovarian
MCF7 breast = system: MCF7 breast
SF-539 CNS = system: SF-539 CNS
NCI-H226 lung = system: NCI-H226 lung
BT-549 breast = system: BT-549 breast
SF-295 CNS = system: SF-295 CNS
DU-145 prostate = system: DU-145 prostate
NCI-H23 lung = system: NCI-H23 lung
UO-31 renal = system: UO-31 renal
SNB-19 CNS = system: SNB-19 CNS
CAKI-1 renal = system: CAKI-1 renal
NCI/ADR-RES ovarian = system: NCI/ADR-RES ovarian
MALME-3M melanoma = system: MALME-3M melanoma
EKVX NSCLC = system: EKVX NSCLC
COLO 205 colon = system: COLO 205 colon
K-562 leukemia = system: K-562 leukemia
MDA-MB-231 breast = system: MDA-MB-231 breast
HT29 colon = system: HT29 colon
UACC-62 melanoma = system: UACC-62 melanoma
SK-MEL-28 melanoma = system: SK-MEL-28 melanoma
HCT-15 colon = system: HCT-15 colon
SK-MEL-5 melanoma = system: SK-MEL-5 melanoma
RXF 393 renal = system: RXF 393 renal
HL-60(TB) leukemia = system: HL-60(TB) leukemia
LOX IMVI melanoma = system: LOX IMVI melanoma
OVCAR-3 ovarian = system: OVCAR-3 ovarian
U251 CNS = system: U251 CNS
SR leukemia = system: SR leukemia
SF-268 CNS = system: SF-268 CNS
KM12 colon = system: KM12 colon
RPMI-8226 leukemia = system: RPMI-8226 leukemia
SW-620 colon = system: SW-620 colon
HCT-116 colon = system: HCT-116 colon
TK-10 renal = system: TK-10 renal
MOLT-4 leukemia = system: MOLT-4 leukemia
CCRF-CEM leukemia = system: CCRF-CEM leukemia
HOP-62 NSCLC = system: HOP-62 NSCLC
SNB-75 CNS = system: SNB-75 CNS
NCI-H522 lung = system: NCI-H522 lung
OVCAR-8 ovarian = system: OVCAR-8 ovarian
T-47D breast = system: T-47D breast
IGROV1 ovarian = system: IGROV1 ovarian
M14 melanoma = system: M14 melanoma
PC-3 prostate = system: PC-3 prostate
HS 578T breast = system: HS 578T breast
SK-MEL-2 melanoma = system: SK-MEL-2 melanoma
HOP-92 NSCLC = system: HOP-92 NSCLC
UACC-257 melanoma = system: UACC-257 melanoma

`COc1cc(/C=C2\COc3ccc(O)c(O)c3C2=O)cc(OC)c1` showed a GI50 (A549 NSCLC) of 2.16 µM, a TGI (A549 NSCLC) of 12.1 µM and a GI50 (MDA-MB-435) of 1.52 µM. It also gave a TGI (MDA-MB-435) of 3.98 µM, a GI50 (A498 renal) of 5.12 µM and a TGI (A498 renal) of 19.1 µM. The GI50 (786-0 renal) was 1.54 µM, the TGI (786-0 renal) was 3.78 µM and the GI50 (NCI-H460 lung) was 1.81 µM. It also gave a TGI (NCI-H460 lung) of 4.7 µM, a GI50 (ACHN renal) of 1.54 µM and a TGI (ACHN renal) of 3.74 µM. The GI50 (SN12C renal) was 1.63 µM, the TGI (SN12C renal) was 8.24 µM and the GI50 (HCC-2998 colon) was 1.85 µM. It also gave a TGI (HCC-2998 colon) of 3.5 µM, a GI50 (OVCAR-5 ovarian) of 3.03 µM and a TGI (OVCAR-5 ovarian) of 11.5 µM. The GI50 (OVCAR-4 ovarian) was 2.2 µM, the TGI (OVCAR-4 ovarian) was 14.2 µM and the GI50 (SK-OV-3 ovarian) was 4.57 µM. It also gave a TGI (SK-OV-3 ovarian) of 17.3 µM, a GI50 (MCF7 breast) of 1.71 µM and a TGI (MCF7 breast) of 14.6 µM. For the same compound, the GI50 (SF-539 CNS) was 1.84 µM, the TGI (SF-539 CNS) was 3.95 µM and the GI50 (NCI-H226 lung) was 4.94 µM. For the same compound, the TGI (NCI-H226 lung) was 28.2 µM, the GI50 (BT-549 breast) was 1.56 µM and the TGI (BT-549 breast) was 4.97 µM. For the same compound, the GI50 (SF-295 CNS) was 3.01 µM, the TGI (SF-295 CNS) was 9.09 µM and the GI50 (DU-145 prostate) was 1.71 µM. It also gave a TGI (DU-145 prostate) of 4.26 µM, a GI50 (NCI-H23 lung) of 2.36 µM and a TGI (NCI-H23 lung) of 7.02 µM. For the same compound, the GI50 (UO-31 renal) was 1.02 µM, the TGI (UO-31 renal) was 2.29 µM and the GI50 (SNB-19 CNS) was 2.17 µM. The TGI (SNB-19 CNS) was 7.47 µM, the GI50 (CAKI-1 renal) was 1.27 µM and the TGI (CAKI-1 renal) was 3.04 µM. The GI50 (NCI/ADR-RES ovarian) was 2.24 µM, the TGI (NCI/ADR-RES ovarian) was 46.5 µM and the GI50 (MALME-3M melanoma) was 1.82 µM. The TGI (MALME-3M melanoma) was 6.08 µM, the GI50 (EKVX NSCLC) was 2.12 µM and the TGI (EKVX NSCLC) was 5.53 µM. For the same compound, the GI50 (COLO 205 colon) was 1.75 µM, the TGI (COLO 205 colon) was 5.68 µM and the GI50 (K-562 leukemia) was 0.471 µM. The TGI (K-562 leukemia) was greater than 100 µM, the GI50 (MDA-MB-231 breast) was 2.47 µM and the TGI (MDA-MB-231 breast) was 10.6 µM. It also gave a GI50 (HT29 colon) of 2.78 µM, a TGI (HT29 colon) of 8.39 µM and a GI50 (UACC-62 melanoma) of 1.42 µM. It also gave a TGI (UACC-62 melanoma) of 3.57 µM, a GI50 (SK-MEL-28 melanoma) of 2.97 µM and a TGI (SK-MEL-28 melanoma) of 10.4 µM. The GI50 (HCT-15 colon) was 0.483 µM, the TGI (HCT-15 colon) was 10.8 µM and the GI50 (SK-MEL-5 melanoma) was 1.72 µM. For the same compound, the TGI (SK-MEL-5 melanoma) was 3.13 µM, the GI50 (RXF 393 renal) was 1.47 µM and the TGI (RXF 393 renal) was 3.01 µM. For the same compound, the GI50 (HL-60(TB) leukemia) was 0.842 µM, the TGI (HL-60(TB) leukemia) was 11.2 µM and the GI50 (LOX IMVI melanoma) was 1.28 µM. For the same compound, the TGI (LOX IMVI melanoma) was 2.67 µM, the GI50 (OVCAR-3 ovarian) was 0.596 µM and the TGI (OVCAR-3 ovarian) was 1.92 µM. It also gave a GI50 (U251 CNS) of 0.861 µM, a TGI (U251 CNS) of 4.09 µM and a GI50 (SR leukemia) of 0.852 µM. For the same compound, the TGI (SR leukemia) was 12.5 µM, the GI50 (SF-268 CNS) was 1.68 µM and the TGI (SF-268 CNS) was 5.34 µM. For the same compound, the GI50 (KM12 colon) was 1.54 µM, the TGI (KM12 colon) was 3.58 µM and the GI50 (RPMI-8226 leukemia) was 0.558 µM. For the same compound, the TGI (RPMI-8226 leukemia) was 4.17 µM, the GI50 (SW-620 colon) was 1.22 µM and the TGI (SW-620 colon) was 4 µM. For the same compound, the GI50 (HCT-116 colon) was 1.56 µM, the TGI (HCT-116 colon) was 3.61 µM and the GI50 (TK-10 renal) was 2.26 µM. It also gave a TGI (TK-10 renal) of 6.89 µM, a GI50 (MOLT-4 leukemia) of 1.54 µM and a TGI (MOLT-4 leukemia) of 53.1 µM. It also gave a GI50 (CCRF-CEM leukemia) of 0.505 µM, a TGI (CCRF-CEM leukemia) greater than 100 µM and a GI50 (HOP-62 NSCLC) of 3.66 µM. It also gave a TGI (HOP-62 NSCLC) of 11.6 µM, a GI50 (SNB-75 CNS) of 2.42 µM and a TGI (SNB-75 CNS) of 10.9 µM. For the same compound, the GI50 (NCI-H522 lung) was 0.171 µM, the TGI (NCI-H522 lung) was 0.403 µM and the GI50 (OVCAR-8 ovarian) was 0.944 µM. The TGI (OVCAR-8 ovarian) was 18.3 µM, the GI50 (T-47D breast) was 1.45 µM and the TGI (T-47D breast) was 8 µM. For the same compound, the GI50 (IGROV1 ovarian) was 1.36 µM, the TGI (IGROV1 ovarian) was 5.22 µM and the GI50 (M14 melanoma) was 1.56 µM. It also gave a TGI (M14 melanoma) of 4.55 µM, a GI50 (PC-3 prostate) of 1.61 µM and a TGI (PC-3 prostate) of 7.85 µM. It also gave a GI50 (HS 578T breast) of 2.66 µM, a TGI (HS 578T breast) of 17.1 µM and a GI50 (SK-MEL-2 melanoma) of 1.93 µM. For the same compound, the TGI (SK-MEL-2 melanoma) was 5.23 µM, the GI50 (HOP-92 NSCLC) was 1.96 µM and the TGI (HOP-92 NSCLC) was 6.08 µM. The GI50 (UACC-257 melanoma) was 1.79 µM and the TGI (UACC-257 melanoma) was 4.97 µM.
